Results on 14 molecules are retold here after patent US12662479B2 (Foghorn Therapeutics Inc., priority 2020, dated 2026).

In assay [1] the target is T1, HiBit-BRG1 fusion protein (Homo sapiens, UniProt P51532).
T1 construct: expressed in transfected cells
The experiment in a line: HiBiT-BRG1 cell-based degradation assay (Nano-Glo HiBiT Lytic Detection, 24 h). The settings on record: HeLa cells expressing HiBit-BRG1 and LgBit; for DC50: read-out: BRG1 HiBit Degradation IC50; for Dmax: HeLa, top dose 30 μM, read-out: BRG1 HiBit Degradation Maximum measured. The essentials: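 Degradation is scaled from DMSO-treated cells (0%) to cells given 2 μM of a known BRM/BRG1 degrader (100%). HeLa cells stably carrying HiBiT-BRG1 plus LgBiT (5000/well) were lysed with Nano-Glo HiBiT detection reagent, shaken 10 min at RT, and luminescence read.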
For orientation: HiBiT is a short tag that completes a luciferase, so light tracks the accessible tagged protein.

The target of the next assay is T2, HiBit-BRM fusion protein (Homo sapiens, UniProt P51531).
T2 construct: expressed in transfected cells
T2 sequence (P51531 whole entry, the tested form may be a part): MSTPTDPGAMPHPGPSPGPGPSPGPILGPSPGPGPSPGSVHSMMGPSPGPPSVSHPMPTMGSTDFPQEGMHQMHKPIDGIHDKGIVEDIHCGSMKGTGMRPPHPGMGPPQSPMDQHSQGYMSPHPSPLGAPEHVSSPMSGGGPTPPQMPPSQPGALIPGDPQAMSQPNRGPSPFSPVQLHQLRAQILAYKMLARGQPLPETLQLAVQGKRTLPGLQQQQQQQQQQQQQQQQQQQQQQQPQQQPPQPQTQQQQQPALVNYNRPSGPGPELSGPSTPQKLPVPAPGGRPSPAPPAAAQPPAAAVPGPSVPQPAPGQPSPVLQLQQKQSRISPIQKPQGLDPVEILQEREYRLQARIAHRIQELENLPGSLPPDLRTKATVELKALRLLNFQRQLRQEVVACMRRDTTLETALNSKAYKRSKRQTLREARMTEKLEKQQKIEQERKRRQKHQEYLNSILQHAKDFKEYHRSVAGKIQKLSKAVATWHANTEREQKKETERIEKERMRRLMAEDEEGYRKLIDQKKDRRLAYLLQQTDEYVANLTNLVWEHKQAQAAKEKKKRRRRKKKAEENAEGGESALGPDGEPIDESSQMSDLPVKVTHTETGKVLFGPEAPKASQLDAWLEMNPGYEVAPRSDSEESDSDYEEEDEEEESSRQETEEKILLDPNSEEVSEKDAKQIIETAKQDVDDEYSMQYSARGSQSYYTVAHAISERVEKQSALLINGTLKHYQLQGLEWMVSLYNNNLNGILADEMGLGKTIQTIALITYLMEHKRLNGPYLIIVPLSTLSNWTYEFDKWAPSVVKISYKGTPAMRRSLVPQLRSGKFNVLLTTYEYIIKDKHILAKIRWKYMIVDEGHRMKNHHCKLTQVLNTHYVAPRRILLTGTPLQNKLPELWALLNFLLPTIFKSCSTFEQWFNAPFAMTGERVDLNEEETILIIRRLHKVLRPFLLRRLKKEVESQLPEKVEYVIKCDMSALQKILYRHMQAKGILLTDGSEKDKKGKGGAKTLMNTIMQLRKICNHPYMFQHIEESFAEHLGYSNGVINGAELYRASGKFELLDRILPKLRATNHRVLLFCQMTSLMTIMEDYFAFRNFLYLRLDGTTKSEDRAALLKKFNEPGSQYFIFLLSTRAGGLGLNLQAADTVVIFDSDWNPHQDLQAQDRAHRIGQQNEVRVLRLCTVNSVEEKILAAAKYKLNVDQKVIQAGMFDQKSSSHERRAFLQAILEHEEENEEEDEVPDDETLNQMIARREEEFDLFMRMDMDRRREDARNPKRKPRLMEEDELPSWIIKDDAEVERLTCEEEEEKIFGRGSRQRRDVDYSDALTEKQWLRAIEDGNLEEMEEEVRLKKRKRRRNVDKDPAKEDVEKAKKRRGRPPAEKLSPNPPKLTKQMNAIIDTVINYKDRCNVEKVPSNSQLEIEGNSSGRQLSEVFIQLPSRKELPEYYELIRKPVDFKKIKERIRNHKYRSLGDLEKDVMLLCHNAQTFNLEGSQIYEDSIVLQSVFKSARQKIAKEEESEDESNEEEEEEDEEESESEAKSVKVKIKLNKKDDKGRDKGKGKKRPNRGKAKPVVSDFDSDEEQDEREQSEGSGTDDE
The experiment in a line: HiBiT-BRM cell-based degradation assay (Nano-Glo HiBiT Lytic Detection, 24 h). Conditions: HeLa cells expressing HiBiT-BRM; for DC50: read-out: BRM HiBit Degradation IC50; for BRM HiBit Degradation Maximum measured: top dose 30 μM. An outline of the steps: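 Stable HiBiT-BRM HeLa line; 24 h compound exposure, top final 30 μM, 3-fold, 10 pts in duplicate. Lytic HiBiT/LgBiT luminescence readout. % degradation vs DMSO (0%) and 2 μM known BRM/BRG1 degrader (100%).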

T1 sequence (P51532 whole entry, the tested form may be a part): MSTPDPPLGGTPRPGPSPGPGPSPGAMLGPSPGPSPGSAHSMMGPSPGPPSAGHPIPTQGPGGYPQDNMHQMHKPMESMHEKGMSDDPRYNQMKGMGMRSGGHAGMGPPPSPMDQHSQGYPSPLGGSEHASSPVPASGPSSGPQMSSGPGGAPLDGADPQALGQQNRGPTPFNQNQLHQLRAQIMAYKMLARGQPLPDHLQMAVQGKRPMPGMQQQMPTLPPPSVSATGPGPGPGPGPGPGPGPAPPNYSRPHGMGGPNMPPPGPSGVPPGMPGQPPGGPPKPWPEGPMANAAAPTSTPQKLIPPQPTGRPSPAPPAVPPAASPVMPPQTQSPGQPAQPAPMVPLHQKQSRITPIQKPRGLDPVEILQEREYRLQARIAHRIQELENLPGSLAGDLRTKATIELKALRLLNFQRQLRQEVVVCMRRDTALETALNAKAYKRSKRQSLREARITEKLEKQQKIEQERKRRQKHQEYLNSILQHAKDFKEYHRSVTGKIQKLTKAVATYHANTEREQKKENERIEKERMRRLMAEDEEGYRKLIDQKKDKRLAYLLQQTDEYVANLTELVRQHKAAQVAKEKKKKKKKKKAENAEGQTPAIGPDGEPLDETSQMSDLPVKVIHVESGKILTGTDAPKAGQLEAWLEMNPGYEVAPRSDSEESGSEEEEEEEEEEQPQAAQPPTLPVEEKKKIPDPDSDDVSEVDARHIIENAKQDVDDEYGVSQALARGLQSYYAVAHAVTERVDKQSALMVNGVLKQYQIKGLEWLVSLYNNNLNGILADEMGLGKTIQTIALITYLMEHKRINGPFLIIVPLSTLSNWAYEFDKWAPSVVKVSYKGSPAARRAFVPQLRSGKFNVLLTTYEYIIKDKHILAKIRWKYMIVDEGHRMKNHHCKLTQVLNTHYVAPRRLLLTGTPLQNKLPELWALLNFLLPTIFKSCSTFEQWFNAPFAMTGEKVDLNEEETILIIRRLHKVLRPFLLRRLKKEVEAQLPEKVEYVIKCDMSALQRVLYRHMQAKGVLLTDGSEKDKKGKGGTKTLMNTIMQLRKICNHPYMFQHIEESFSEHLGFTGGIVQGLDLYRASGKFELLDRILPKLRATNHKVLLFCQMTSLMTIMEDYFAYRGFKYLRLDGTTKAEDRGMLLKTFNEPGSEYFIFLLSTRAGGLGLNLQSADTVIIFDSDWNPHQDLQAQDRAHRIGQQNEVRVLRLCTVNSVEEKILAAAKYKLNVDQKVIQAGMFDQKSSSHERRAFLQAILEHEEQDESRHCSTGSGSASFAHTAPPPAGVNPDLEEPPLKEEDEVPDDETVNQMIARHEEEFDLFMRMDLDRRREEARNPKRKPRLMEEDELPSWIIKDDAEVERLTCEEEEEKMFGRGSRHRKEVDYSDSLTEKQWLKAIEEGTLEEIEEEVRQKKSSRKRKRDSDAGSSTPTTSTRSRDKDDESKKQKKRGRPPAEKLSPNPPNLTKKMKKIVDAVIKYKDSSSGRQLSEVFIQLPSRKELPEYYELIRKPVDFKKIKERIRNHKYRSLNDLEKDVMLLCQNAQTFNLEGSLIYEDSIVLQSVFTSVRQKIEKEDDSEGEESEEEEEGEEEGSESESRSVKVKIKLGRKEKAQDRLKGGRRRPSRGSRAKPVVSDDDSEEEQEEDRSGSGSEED

As for `CS(=O)(=O)n1ccc(C(=O)NCC(=O)Nc2nc(-c3cccc(-c4ccnc(C5(C(=O)NCCCCNc6ccc7c(c6)C(=O)N(C6CCC(=O)NC6=O)C7=O)CC5)c4)c3)cs2)c1` (stereo not shown) [Compound 105, N-[2-[[4-[3-[2-[1-[4-[[2-(2,6-dioxo-3-piperidyl)-1,3-dioxo-isoindolin-5-yl]amino]butylcarbamoyl]cyclopropyl]-4-pyridyl]phenyl]thiazol-2-yl]amino]-2-oxo-ethyl]-1-methylsulfonyl-pyrrole-3-carboxamide], in assay [1], the DC50 was under 0.1 µM and the Dmax was over 75%. On HiBit-BRM fusion protein, the DC50 is under 0.1 µM and the “BRM HiBit Degradation Maximum measured” value is “A (‘A’ = Maximum degradation >75%)”.
With `CS(=O)(=O)n1ccc(C(=O)N[C@@H](CCOCCCC(=O)NCCOCCOCCNC(=O)COc2cccc3c2C(=O)N(C2CCC(=O)NC2=O)C3=O)C(=O)Nc2nc(-c3ccccc3)cs2)c1` (stereo partly drawn) [Compound 223, (2S)-4-[3-[(2-[2-[2-(2-[[2-(2,6-dioxopiperidin-3-yl)-1,3-dioxoisoindol-4-yl]oxy]acetamido)ethoxy]ethoxy]ethyl)carbamoyl]propoxy]-2-[(1-methanesulfonylpyrrol-3-yl)formamido]-N-(4-phenyl-1,3-thiazol-2-yl)butanamide], in assay [1], the DC50 was over 10 µM and the Dmax is under 50%. On HiBit-BRM fusion protein, the DC50 is over 10 µM and the “BRM HiBit Degradation Maximum measured” value is “C (‘C’ = Maximum degradation <50%)”.
For `CN(CC(=O)NCCCCS(=O)(=O)CCCNc1cccc2c1C(=O)N(C1CCC(=O)NC1=O)C2=O)c1cc(-c2cccc(-c3csc(NC(=O)CNC(=O)c4ccn(S(C)(=O)=O)c4)n3)c2)ccn1` (stereo not shown) [Compound 29], in assay [1], the DC50 was over 10 µM and the Dmax was under 50%. Moreover, on HiBit-BRM fusion protein, the DC50 is over 10 µM and the “BRM HiBit Degradation Maximum measured” value is listed as “C (‘C’ = Maximum degradation <50%)”.
`CS(=O)(=O)n1ccc(C(=O)N[C@@H](CCOCCCC(=O)NCCCCNc2ccc3c(c2)C(=O)N(C2CCC(=O)NC2=O)C3=O)C(=O)Nc2nc(-c3ccccc3)cs2)c1` (stereo partly drawn) [Compound 282, (2S)-4-[3-[(4-[[2-(2,6-dioxopiperidin-3-yl)-1,3-dioxoisoindol-5-yl]amino]butyl)carbamoyl]propoxy]-2-[(1-methanesulfonylpyrrol-3-yl)formamido]-N-(4-phenyl-1,3-thiazol-2-yl)butanamide]: in assay [1], the DC50 was over 10 µM and the Dmax is under 50%. Besides, on HiBit-BRM fusion protein, the DC50 was over 10 µM and the “BRM HiBit Degradation Maximum measured” value is reported as “C (‘C’ = Maximum degradation <50%)”.
In the case of `CS(=O)(=O)n1ccc(C(=O)N[C@@H](CCCCNC(=O)C2CC2CNC(=O)COc2cccc3c2C(=O)N(C2CCC(=O)NC2=O)C3=O)C(=O)Nc2nc(-c3ccccc3)cs2)c1` (stereo partly drawn) [Compound 284, (2S)-6-([2-[(2-[[2-(2,6-dioxopiperidin-3-yl)-1,3-dioxoisoindol-4-yl]oxy]acetamido)methyl]cyclopropyl]formamido)-2-[(1-methanesulfonylpyrrol-3-yl)formamido]-N-(4-phenyl-1,3-thiazol-2-yl)hexanamide], in assay [1], the DC50 was over 10 µM and the Dmax is under 50%. Moreover, on HiBit-BRM fusion protein, the DC50 is over 10 µM and the “BRM HiBit Degradation Maximum measured” value is on record as “C (‘C’ = Maximum degradation <50%)”.
In the case of `Cc1ncsc1-c1ccc(CNC(=O)[C@@H]2C[C@@H](O)CN2C(=O)[C@@H](NC(=O)COCCOCCOCCOCC(=O)NCc2cccc(-c3cccc(-c4csc(NC(=O)CNC(=O)c5ccn(S(C)(=O)=O)c5)n4)c3)c2)C(C)(C)C)cc1` [Compound 121, N1-((S)-1-((2S,4R)-4-hydroxy-2-((4-(4-methylthiazol-5-yl)benzyl)carbamoyl)pyrrolidin-1-yl)-3,3-dimethyl-1-oxobutan-2-yl)-N14-((3′-(2-(2-(1-(methylsulfonyl)-1H-pyrrole-3-carboxamido)acetamido)thiazol-4-yl)-[1,1′-biphenyl]-3-yl)methyl)-3,6,9,12-tetraoxatetradecane-1,14-diamide], in assay [1], the DC50 lay in the range of 1 to 10 µM and the Dmax was in the range of 50 to 75%. Besides, at HiBit-BRM fusion protein, the DC50 was 1 to 10 µM; the “BRM HiBit Degradation Maximum measured” value is “B (‘B’ = Maximum degradation ≥50% and ≤75%)”.
`CS(=O)(=O)n1ccc(C(=O)N[C@@H](COCc2ccc(CNC(=O)CCCCCCCCCCNc3cccc4c3C(=O)N(C3CCC(=O)NC3=O)C4=O)cc2)C(=O)Nc2nc(-c3ccccc3)cs2)c1` (stereo partly drawn) [Compound 214, 11-[[2-(2,6-dioxopiperidin-3-yl)-1,3-dioxoisoindol-4-yl]amino]-N-[(4-[[(2S)-2-[(1-methanesulfonylpyrrol-3-yl)formamido]-2-[(4-phenyl-1,3-thiazol-2-yl)carbamoyl]ethoxy]methyl]phenyl)methyl]undecanamide]: the DC50 (in assay [1]; on HiBit-BRM fusion protein) was 0.1 to 1 µM throughout. In addition, on HiBit-BRM fusion protein, the “BRM HiBit Degradation Maximum measured” value is “B (‘B’ = Maximum degradation ≥50% and ≤75%)”.
In the case of `Cc1ncsc1-c1ccc(CNC(=O)[C@@H]2C[C@@H](O)CN2C(=O)[C@@H](NC(=O)CCOCCOCCC(=O)NCc2cccc(-c3cccc(-c4csc(NC(=O)CNC(=O)c5ccn(S(C)(=O)=O)c5)n4)c3)c2)C(C)(C)C)cc1` [Compound 1, N-(2-((4-(3′-((S)-14-((2S,4R)-4-hydroxy-2-((4-(4-methylthiazol-5-yl)benzyl)carbamoyl)pyrrolidine-1-carbonyl)-15,15-dimethyl-3,12-dioxo-6,9-dioxa-2,13-diazahexadecyl)-[1,1′-biphenyl]-3-yl)thiazol-2-yl)amino)-2-oxoethyl)-1-(methylsulfonyl)-1H-pyrrole-3-carboxamide], in assay [1], the DC50 was in the range of 0.1 to 1 µM and the Dmax was over 75%. Also, on HiBit-BRM fusion protein, the DC50 lay in the range of 0.1 to 1 µM and the “BRM HiBit Degradation Maximum measured” value is “A (‘A’ = Maximum degradation >75%)”.
On to `Cc1c(C(=O)NCC(=O)Nc2nc(-c3cccc(-c4ccnc(N(C)CC(=O)NCCOCCOCCNc5cccc6c5C(=O)N(C5CCC(=O)NC5=O)C6=O)c4)c3)cs2)cn(S(=O)(=O)C(C)C)c1C` (stereo not shown) [Compound 90, N-[2-[[4-[3-[2-[[2-[2-[2-[2-[[2-(2,6-dioxo-3-piperidyl)-1,3-dioxo-isoindolin-4-yl]amino]ethoxy]ethoxy]ethylamino]-2-oxo-ethyl]-methyl-amino]-4-pyridyl]phenyl]thiazol-2-yl]amino]-2-oxo-ethyl]-1-isopropylsulfonyl-4,5-dimethyl-pyrrole-3-carboxamide], for which, in assay [1], the DC50 is over 10 µM and the Dmax was under 50%. At HiBit-BRM fusion protein, the DC50 is over 10 µM and the “BRM HiBit Degradation Maximum measured” value is given as “C (‘C’ = Maximum degradation <50%)”.
As for `CS(=O)(=O)n1ccc(C(=O)N[C@@H](COCc2ccc(CNC(=O)CCCOc3cccc4c3C(=O)N(C3CCC(=O)NC3=O)C4=O)cc2)C(=O)Nc2nc(-c3ccccc3)cs2)c1` (stereo partly drawn) [Compound 178, 4-[[2-(2,6-dioxopiperidin-3-yl)-1,3-dioxoisoindol-4-yl]oxy]-N-[(4-[[(2S)-2-[(1-methanesulfonylpyrrol-3-yl)formamido]-2-[(4-phenyl-1,3-thiazol-2-yl)carbamoyl]ethoxy]methyl]phenyl)methyl]butanamide], in assay [1], the DC50 was over 10 µM and the Dmax was under 50%. For the same molecule, on HiBit-BRM fusion protein, the DC50 was over 10 µM and the “BRM HiBit Degradation Maximum measured” value is listed as “C (‘C’ = Maximum degradation <50%)”.
With `CN(CC(=O)NCCCCCCCCNc1ccc2c(c1)C(=O)N(C1CCC(=O)NC1=O)C2=O)c1cc(-c2cccc(-c3csc(NC(=O)CNC(=O)c4ccn(S(C)(=O)=O)c4)n3)c2)ccn1` (stereo not shown) [Compound 92], in assay [1], the DC50 was over 10 µM and the Dmax was under 50%. On HiBit-BRM fusion protein, the DC50 was over 10 µM and the “BRM HiBit Degradation Maximum measured” value is listed as “C (‘C’ = Maximum degradation <50%)”.
With `CS(=O)(=O)n1ccc(C(=O)NCC(=O)Nc2nc(-c3cccc(-c4ccnc(OCCNC(=O)CCOCCOCCOc5cccc6c5C(=O)N(C5CCC(=O)NC5=O)C6=O)c4)c3)cs2)c1` (stereo not shown) [Compound 68, N-[2-[[4-[3-[2-[2-[3-[2-[2-[2-(2,6-dioxo-3-piperidyl)-1,3-dioxoisoindolin-4-yl]oxyethoxy]ethoxy]propanoylamino]ethoxy]-4-pyridyl]phenyl]thiazol-2-yl]amino]-2-oxo-ethyl]-1-methylsulfonyl-pyrrole-3-carboxamide], in assay [1], the DC50 is 0.1 to 1 µM and the Dmax is 50 to 75%. In addition, on HiBit-BRM fusion protein, the DC50 lay within 0.1 to 1 µM; the “BRM HiBit Degradation Maximum measured” value is “B (‘B’ = Maximum degradation ≥50% and ≤75%)”.
With `Cc1ncsc1-c1ccc(CNC(=O)C2CC(O)CN2C(=O)C(NC(=O)CCCCCCCNC(=O)c2ccc(COCC(NC(=O)c3ccn(S(C)(=O)=O)c3)C(=O)Nc3nc(-c4ccccc4)cs3)cc2)C(C)(C)C)cc1` (stereo not shown) [Compound 174], in assay [1], the DC50 was 0.1 to 1 µM and the Dmax fell in the range of 50 to 75%. Besides, on HiBit-BRM fusion protein, the DC50 was 0.1 to 1 µM; the “BRM HiBit Degradation Maximum measured” value is “B (‘B’ = Maximum degradation ≥50% and ≤75%)”.
Turning to `Cc1ncsc1-c1ccc(CNC(=O)[C@@H]2C[C@@H](O)CN2C(=O)[C@@H](NC(=O)CCCCCCCCCNC(=O)C2(c3cc(-c4cccc(-c5csc(NC(=O)CNC(=O)c6ccn(S(C)(=O)=O)c6)n5)c4)ccn3)CC2)C(C)(C)C)cc1` [Compound 98, N-(2-((4-(3-(2-(1-((10-(((S)-1-((2S,4R)-4-hydroxy-2-((4-(4-methylthiazol-5-yl)benzyl)carbamoyl)pyrrolidin-1-yl)-3,3-dimethyl-1-oxobutan-2-yl)amino)-10-oxodecyl)carbamoyl)cyclopropyl)-pyridin-4-yl)phenyl)thiazol-2-yl)amino)-2-oxoethyl)-1-(methylsulfonyl)-1H-pyrrole-3-carboxamide], in assay [1], the DC50 is under 0.1 µM and the Dmax is over 75%. On HiBit-BRM fusion protein, the DC50 is under 0.1 µM and the “BRM HiBit Degradation Maximum measured” value is reported as “A (‘A’ = Maximum degradation >75%)”.
